In ChEMBL document CHEMBL1201862, “PubChem BioAssay data set” (2004):
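Method: 48-hour compound exposure of cells in 96-well plates, five concentrations, linear interpolation of endpoints. Here, GI50 denotes the concentration required for 50% inhibition of growth.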 Activity calls are given as the source filed them. Cut-off read from the data, not from the text of the source: active = GI50 up to about 1.1 µM and inactive = higher.

Key:
Test in all cases: NCI-60 cell line screen, 48 h
786-0 = test system: 786-0
A498 = test system: A498
A549 = test system: A549
ACHN = test system: ACHN
BT-549 = test system: BT-549
CAKI-1 = test system: CAKI-1
CCRF-CEM = test system: CCRF-CEM
COLO 205 = test system: COLO 205
DU-145 = test system: DU-145
EKVX = test system: EKVX
HCC 2998 = test system: HCC 2998
HCT-116 = test system: HCT-116
HCT-15 = test system: HCT-15
HL-60 = test system: HL-60
HOP-62 = test system: HOP-62
HOP-92 = test system: HOP-92
HT-29 = test system: HT-29
Hs-578T = test system: Hs-578T
IGROV-1 = test system: IGROV-1
K562 = test system: K562
KM12 = test system: KM12
LOX IMVI = test system: LOX IMVI
M14 = test system: M14
MCF7 = test system: MCF7
MDA-MB-231 = test system: MDA-MB-231
MDA-MB-435 = test system: MDA-MB-435
MDA-N = test system: MDA-N
MOLT-4 = test system: MOLT-4
Malme-3M = test system: Malme-3M
NCI-H226 = test system: NCI-H226
NCI-H23 = test system: NCI-H23
NCI-H460 = test system: NCI-H460
NCI/ADR-RES = test system: NCI/ADR-RES
OVCAR-3 = test system: OVCAR-3
OVCAR-4 = test system: OVCAR-4
OVCAR-5 = test system: OVCAR-5
OVCAR-8 = test system: OVCAR-8
PC-3 = test system: PC-3
SF-295 = test system: SF-295
SF-539 = test system: SF-539
SK-MEL-28 = test system: SK-MEL-28
SK-MEL-2 = test system: SK-MEL-2
SK-MEL-5 = test system: SK-MEL-5
SK-OV-3 = test system: SK-OV-3
SN12C = test system: SN12C
SNB-19 = test system: SNB-19
SNB-75 = test system: SNB-75
SW-620 = test system: SW-620
T47D = test system: T47D
TK-10 = test system: TK-10
U-251 = test system: U-251
UACC-257 = test system: UACC-257
UACC-62 = test system: UACC-62
UO-31 = test system: UO-31
NCI-H522 = test system: NCI-H522
RPMI-8226 = test system: RPMI-8226
RXF 393 = test system: RXF 393
SF-268 = test system: SF-268
SR = test system: SR

Structure (SMILES): O=C(CCN1CCOCC1)c1ccc(Oc2ccc(F)cc2)cc1
- GI50 (786-0): 17.1 µM (inactive)
- GI50 (A498): > 100 µM (inactive)
- GI50 (A549): > 100 µM (inactive)
- GI50 (ACHN): 17.9 µM (inactive)
- GI50 (BT-549): 18.2 µM (inactive)
- GI50 (CAKI-1): 18 µM (inactive)
- GI50 (CCRF-CEM): 30.8 µM (inactive)
- GI50 (COLO 205): 23 µM (inactive)
- GI50 (DU-145): 36 µM (inactive)
- GI50 (EKVX): 19 µM (inactive)
- GI50 (HCC 2998): 37.2 µM (inactive)
- GI50 (HCT-116): 22.5 µM (inactive)
- GI50 (HCT-15): 19 µM
- GI50 (HL-60): 35.5 µM (inactive)
- GI50 (HOP-62): 50.2 µM (inactive)
- GI50 (HOP-92): 28.1 µM (inactive)
- GI50 (HT-29): 18.7 µM (inactive)
- GI50 (Hs-578T): 19.9 µM (inactive)
- GI50 (IGROV-1): 19.5 µM (inactive)
- GI50 (K562): 23.6 µM (inactive)
- GI50 (KM12): 17.4 µM (inactive)
- GI50 (LOX IMVI): 21.8 µM (inactive)
- GI50 (M14): 18.4 µM (inactive)
- GI50 (MCF7): 18.7 µM (inactive)
- GI50 (MDA-MB-231): 19.6 µM (inactive)
- GI50 (MDA-MB-435): 37.6 µM (inactive)
- GI50 (MDA-N): 23.8 µM (inactive)
- GI50 (MOLT-4): 23.7 µM (inactive)
- GI50 (Malme-3M): 20.4 µM (inactive)
- GI50 (NCI-H226): 26 µM (inactive)
- GI50 (NCI-H23): 26.7 µM (inactive)
- GI50 (NCI-H460): > 100 µM (inactive)
- GI50 (NCI/ADR-RES): 26.9 µM (inactive)
- GI50 (OVCAR-3): 22.3 µM (inactive)
- GI50 (OVCAR-4): 33.6 µM (inactive)
- GI50 (OVCAR-5): 24.2 µM (inactive)
- GI50 (OVCAR-8): 19.4 µM (inactive)
- GI50 (PC-3): 19.2 µM (inactive)
- GI50 (SF-295): > 100 µM (inactive)
- GI50 (SF-539): 17.9 µM (inactive)
- GI50 (SK-MEL-28): 28 µM (inactive)
- GI50 (SK-MEL-2): 23.6 µM (inactive)
- GI50 (SK-MEL-5): 31.3 µM (inactive)
- GI50 (SK-OV-3): > 100 µM (inactive)
- GI50 (SN12C): 30.9 µM (inactive)
- GI50 (SNB-19): > 100 µM (inactive)
- GI50 (SNB-75): 19.6 µM (inactive)
- GI50 (SW-620): 30.3 µM (inactive)
- GI50 (T47D): 18.9 µM (inactive)
- GI50 (TK-10): 17.9 µM (inactive)
- GI50 (U-251): 53.2 µM (inactive)
- GI50 (UACC-257): 17.7 µM (inactive)
- GI50 (UACC-62): 18.6 µM (inactive)
- GI50 (UO-31): 19.7 µM (inactive)

Structure (SMILES): CCC(C)NC1=NCC(C)S1 (stereo not drawn)
- GI50 (A498): > 100 µM (inactive)
- GI50 (A549): > 100 µM (inactive)
- GI50 (ACHN): > 100 µM (inactive)
- GI50 (BT-549): > 100 µM (inactive)
- GI50 (CAKI-1): > 100 µM (inactive)
- GI50 (CCRF-CEM): > 100 µM (inactive)
- GI50 (COLO 205): > 100 µM (inactive)
- GI50 (DU-145): > 100 µM (inactive)
- GI50 (EKVX): > 100 µM (inactive)
- GI50 (HCC 2998): > 100 µM (inactive)
- GI50 (HCT-116): > 100 µM (inactive)
- GI50 (HCT-15): > 100 µM
- GI50 (HL-60): > 100 µM (inactive)
- GI50 (HOP-62): > 100 µM (inactive)
- GI50 (HOP-92): > 100 µM (inactive)
- GI50 (HT-29): > 100 µM (inactive)
- GI50 (Hs-578T): > 100 µM (inactive)
- GI50 (IGROV-1): > 100 µM (inactive)
- GI50 (K562): > 100 µM (inactive)
- GI50 (KM12): > 100 µM (inactive)
- GI50 (LOX IMVI): > 100 µM (inactive)
- GI50 (M14): > 100 µM (inactive)
- GI50 (MCF7): > 100 µM (inactive)
- GI50 (MDA-MB-231): > 100 µM (inactive)
- GI50 (MDA-MB-435): > 100 µM (inactive)
- GI50 (MDA-N): > 100 µM (inactive)
- GI50 (MOLT-4): > 100 µM (inactive)
- GI50 (Malme-3M): > 100 µM (inactive)
- GI50 (NCI-H226): > 100 µM (inactive)
- GI50 (NCI-H23): > 100 µM (inactive)
- GI50 (NCI-H460): > 100 µM (inactive)
- GI50 (NCI-H522): > 100 µM (inactive)
- GI50 (OVCAR-3): > 100 µM (inactive)
- GI50 (OVCAR-5): > 100 µM (inactive)
- GI50 (PC-3): > 100 µM (inactive)
- GI50 (RPMI-8226): > 100 µM (inactive)
- GI50 (RXF 393): 28.3 µM (inactive)
- GI50 (SF-268): > 100 µM (inactive)
- GI50 (SF-295): > 100 µM (inactive)
- GI50 (SF-539): > 100 µM (inactive)
- GI50 (SK-MEL-28): > 100 µM (inactive)
- GI50 (SK-MEL-2): > 100 µM (inactive)
- GI50 (SK-MEL-5): > 100 µM (inactive)
- GI50 (SK-OV-3): > 100 µM (inactive)
- GI50 (SN12C): > 100 µM (inactive)
- GI50 (SNB-19): > 100 µM (inactive)
- GI50 (SNB-75): > 100 µM (inactive)
- GI50 (SR): > 100 µM (inactive)
- GI50 (SW-620): > 100 µM (inactive)
- GI50 (T47D): > 100 µM (inactive)
- GI50 (U-251): > 100 µM (inactive)
- GI50 (UACC-257): > 100 µM (inactive)
- GI50 (UACC-62): > 100 µM (inactive)
- GI50 (UO-31): > 100 µM (inactive)

Structure (SMILES): O=C1c2ccccc2C(=O)c2c(NCCCN3CCOCC3)ccc(NCCCN3CCOCC3)c21
- GI50 (786-0): 2.29 µM (inactive)
- GI50 (A498): 12 µM (inactive)
- GI50 (A549): 4.18 µM (inactive)
- GI50 (ACHN): 2.07 µM (inactive)
- GI50 (BT-549): 6.62 µM (inactive)
- GI50 (CAKI-1): 4.45 µM (inactive)
- GI50 (CCRF-CEM): 2.59 µM (inactive)
- GI50 (DU-145): < 0.01 µM (active)
- GI50 (EKVX): 11 µM (inactive)
- GI50 (HCC 2998): 2.86 µM (inactive)
- GI50 (HCT-116): 1.23 µM (inactive)
- GI50 (HCT-15): 2.55 µM
- GI50 (HL-60): 2.45 µM (inactive)
- GI50 (HOP-62): 2.12 µM (inactive)
- GI50 (HOP-92): 1.89 µM (inactive)
- GI50 (HT-29): 1.14 µM (inactive)
- GI50 (Hs-578T): 5.45 µM (inactive)
- GI50 (IGROV-1): 4.69 µM (inactive)
- GI50 (K562): 2.16 µM (inactive)
- GI50 (KM12): 3.12 µM (inactive)
- GI50 (LOX IMVI): 1.54 µM (inactive)
- GI50 (M14): 3.1 µM (inactive)
- GI50 (MCF7): 5.9 µM (inactive)
- GI50 (MDA-MB-231): 3.08 µM (inactive)
- GI50 (MDA-N): 3.22 µM (inactive)
- GI50 (MOLT-4): 1.09 µM (active)
- GI50 (Malme-3M): 8.89 µM (inactive)
- GI50 (NCI-H226): 6.59 µM (inactive)
- GI50 (NCI-H23): < 0.01 µM (active)
- GI50 (NCI-H460): 1.54 µM (inactive)
- GI50 (NCI-H522): 0.67 µM (active)
- GI50 (OVCAR-3): 4.07 µM (inactive)
- GI50 (OVCAR-4): 2.67 µM (inactive)
- GI50 (OVCAR-5): 9.42 µM (inactive)
- GI50 (OVCAR-8): 1.9 µM (inactive)
- GI50 (PC-3): 2.61 µM (inactive)
- GI50 (RPMI-8226): 2 µM (inactive)
- GI50 (RXF 393): 8.36 µM (inactive)
- GI50 (SF-268): 2.75 µM (inactive)
- GI50 (SF-295): 1.94 µM (inactive)
- GI50 (SF-539): 1.82 µM (inactive)
- GI50 (SK-MEL-28): 5.79 µM (inactive)
- GI50 (SK-MEL-2): 8.24 µM (inactive)
- GI50 (SK-MEL-5): 2.51 µM (inactive)
- GI50 (SN12C): 2.18 µM (inactive)
- GI50 (SNB-19): 5.3 µM (inactive)
- GI50 (SNB-75): 2.29 µM (inactive)
- GI50 (SR): 5.57 µM (inactive)
- GI50 (SW-620): 3.97 µM (inactive)
- GI50 (T47D): 29.3 µM (inactive)
- GI50 (TK-10): 12.9 µM (inactive)
- GI50 (U-251): 3.24 µM (inactive)
- GI50 (UACC-257): 2.96 µM (inactive)
- GI50 (UACC-62): 2.03 µM (inactive)
- GI50 (UO-31): 3.01 µM (inactive)
